The text below walks through data of US9394311B2, “Triazolo compounds as PDE10 inhibitors” (Hoffmann-La Roche Inc., priority 2012, dated 2016).

The structures appear in SMILES notation.

The target in the assay is human PDE10A (Homo sapiens (Human), UniProt Q9Y233). Briefly: human PDE10A full length Scintillation Proximity Assay (SPA). It counts as biochemical. The settings on record: PDE10A full length enzyme, 50 nM cGMP / [3H]-cGMP substrate, 20 minutes at room temperature. Here is the method: The following test was carried out in order to determine the activity of the compounds of the present invention. PDE10 activity of the compounds of the present invention was determined using a Scintillation Proximity Assay (SPA)-based method similar to the one previously described (Fawcett, L. et al., Proc Natl Acad Sci USA (2000) 97(7):3702-3707).
human PDE10A, sequence (Q9Y233 other isoform, or with tags, fused parts or gaps): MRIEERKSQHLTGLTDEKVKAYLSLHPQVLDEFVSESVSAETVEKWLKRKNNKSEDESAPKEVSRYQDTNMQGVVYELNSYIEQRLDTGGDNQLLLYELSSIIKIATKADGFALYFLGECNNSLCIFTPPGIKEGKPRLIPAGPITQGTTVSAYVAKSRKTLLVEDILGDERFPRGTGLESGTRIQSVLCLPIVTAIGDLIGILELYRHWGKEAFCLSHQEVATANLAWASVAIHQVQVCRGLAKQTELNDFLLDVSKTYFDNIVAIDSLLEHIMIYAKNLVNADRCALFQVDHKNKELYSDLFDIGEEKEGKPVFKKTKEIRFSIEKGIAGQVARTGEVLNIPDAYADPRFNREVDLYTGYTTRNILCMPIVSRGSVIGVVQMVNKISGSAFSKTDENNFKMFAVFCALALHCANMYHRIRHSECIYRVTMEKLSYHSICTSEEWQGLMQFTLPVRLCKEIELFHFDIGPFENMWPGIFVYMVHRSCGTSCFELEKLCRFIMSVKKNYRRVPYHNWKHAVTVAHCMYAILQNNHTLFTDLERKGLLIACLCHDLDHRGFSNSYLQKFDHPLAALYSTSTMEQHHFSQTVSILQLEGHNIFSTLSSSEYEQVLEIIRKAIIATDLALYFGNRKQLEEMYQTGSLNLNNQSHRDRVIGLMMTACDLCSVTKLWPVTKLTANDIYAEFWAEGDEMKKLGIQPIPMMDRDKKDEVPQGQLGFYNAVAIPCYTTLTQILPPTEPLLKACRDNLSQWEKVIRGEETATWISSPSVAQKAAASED
The human PDE10A full length assay was performed in 96-well micro titer plates. The reaction mixture of 50 μl contained 20 mM HEPES pH=7.5/10 mM MgCl2/0.05 mg/ml BSA (Sigma cat. # A-7906), 50 nM cGMP (Sigma, cat. # G6129) and 50 nM [3H]-cGMP (GE Healthcare, cat. # TRK392 S.A. 13.2 Ci/mmol), 3.75 ng/well PDE10A enzyme (Enzo Life Science, Lausen, Switzerland cat # SE-534) with or without a specific test compound. A range of concentrations of the potential inhibitor was used to generate data for calculating the concentration of inhibitor resulting in 50% of the effect (e.g. IC50, the concentration of the competitor inhibiting PDE10A activity by 50%). Non-specific activity was tested without the enzyme. The reaction was initiated by the addition of the substrate solution (cGMP and [3H]-cGMP) and allowed to progress for 20 minutes at room temperature. The reaction was terminated by adding 25 μl of YSi-SPA scintillation beads (GE Healthcare, cat. # RPNQ0150) in 18 mM zinc sulphate solution (stop reagent). After 1 h under shaking, the plate was centrifuged one minute at 170 g to allow beads to settle. Afterwards, radioactive counts were measured on a Perkin Elmer Top-Count Scintillation plate reader.
(In general: Scintillation proximity formats need no separation of bound from free tracer.)
As to `Cc1ncc(C)n2nc(CCc3nc(N4CCCCC4)nn3C)nc12` [Example 49, 5,8-Dimethyl-2-[2-(2-methyl-5-piperidin-1-yl-2H-[1,2,4]triazol-3-yl)-ethyl]-[1,2,4]triazolo[1,5-a]pyrazine], the 50% inhibitory concentration (IC50) – broadly, the concentration that gives 50% inhibition – stood at 31.6 nM.
In the case of `Cn1nc(N2CCCC2)nc1CCc1nc2ccc(C#N)cn2n1` [Example 53, 2-(2-(1-Methyl-3-(pyrrolidin-1-yl)-1H-1,2,4-triazol-5-yl)ethyl)-[1,2,4]triazolo[1,5-a]pyridine-6-carbonitrile] it was 381 nM.
In the case of `Cc1nc2ccccc2nc1CCc1nc(N2CCCC2)nn1C` [Example 16, 2-Methyl-3-[2-(2-methyl-5-pyrrolidin-1-yl-2H-[1,2,4]triazol-3-yl)-ethyl]-quinoxaline] it was 61.4 nM.
`Cc1nc2cc(Cl)ccc2nc1C#Cc1nc(N2CCCC2)nn1C` [Example 135, 6-Chloro-3-methyl-2-(2-methyl-5-pyrrolidin-1-yl-2H-[1,2,4]triazol-3-ylethynyl)-quinoxaline] gave an IC50 of 10.7 nM.
In the case of `Cc1cc(Cl)c(C)n2nc(CCc3nc(N4CCCC4)n(C)n3)nc12` [Example 36, 6-Chloro-5,8-dimethyl-2-(2-(1-methyl-5-(pyrrolidin-1-yl)-1H-1,2,4-triazol-3-yl)ethyl)-[1,2,4]triazolo[1,5-a]pyridine] it was 0.58 nM; in that of `Cc1ncc(C)n2nc(CCc3nc(N4CCCC4)nn3CC(F)(F)F)nc12` [Example 7, 5,8-Dimethyl-2-{2-[5-pyrrolidin-1-yl-2-(2,2,2-trifluoro-ethyl)-2H-[1,2,4]triazol-3-yl]-ethyl}-[1,2,4]triazolo[1,5-a]pyrazine], 17 nM.
For the molecule `Cc1ncc(C)n2nc(CCc3nc(N4CCC(O)C4)nn3C)nc12` (centres unmarked) [Example 104, 1-{5-[2-(5,8-Dimethyl-[1,2,4]triazolo[1,5-a]pyrazin-2-yl)-ethyl]-1-methyl-1H-[1,2,4]triazol-3-yl}-pyrrolidin-3-ol], the IC50 was determined as 131 nM.
In the case of `Cc1ncc(C)n2nc(CCc3nc(N4CCC(C(F)F)C4)nn3C)nc12` (centres unmarked) [Example 129, 2-{2-[5-(3-Difluoromethyl-pyrrolidin-1-yl)-2-methyl-2H-[1,2,4]triazol-3-yl]-ethyl}-5,8-dimethyl-[1,2,4]triazolo[1,5-a]pyrazine] it was 48.1 nM; in that of `Cc1c(Cl)cc(OC2CCOCC2)c2nc(CCc3nc(N4CCCC4)nn3C)nn12` [Example 120, 6-Chloro-5-methyl-2-(2-(1-methyl-3-(pyrrolidin-1-yl)-1H-1,2,4-triazol-5-yl)ethyl)-8-(tetrahydro-2H-pyran-4-yloxy)-[1,2,4]triazolo[1,5-a]pyridine], 0.36 nM.
The same measure for `Cc1ncc(C)n2nc(CCc3nc(N4CC[C@@H](NC(=O)OC(C)(C)C)C4)nn3C)nc12` [Example 107, ((R)-1-{5-[2-(5,8-Dimethyl-[1,2,4]triazolo[1,5-a]pyrazin-2-yl)-ethyl]-1-methyl-1H-[1,2,4]triazol-3-yl}-pyrrolidin-3-yl)-carbamic acid tert-butyl ester]: 171 nM.
In the case of `Cc1cnc(C)n2nc(CCc3nc(N4CCC[C@@H]4C)nn3C)nc12` [Example 112, 5,8-Dimethyl-2-{2-[2-methyl-5-((S)-2-methyl-pyrrolidin-1-yl)-2H-[1,2,4]triazol-3-yl]-ethyl}-[1,2,4]triazolo[1,5-c]pyrimidine] it was 9 nM.
Turning to `Cc1c(Cl)cc(C(F)(F)F)c2nc(C#Cc3nc(N4CCCC4)nn3C)nn12` [Example 91, 6-Chloro-5-methyl-2-(2-methyl-5-pyrrolidin-1-yl-2H-[1,2,4]triazol-3-ylethynyl)-8-trifluoromethyl-[1,2,4]triazolo[1,5-a]pyridine], half-maximal inhibition (IC50) required 0.88 nM. Against the preceding molecule, the IC50 is about 10-fold lower.
In the case of `COc1ccc(Cn2nc(N3CCCC3)nc2CCc2nc3c(C)ncc(C)n3n2)cc1` [Example 20, 2-{2-[2-(4-Methoxy-benzyl)-5-pyrrolidin-1-yl-2H-[1,2,4]triazol-3-yl]-ethyl}-5,8-dimethyl-[1,2,4]triazolo[1,5-a]pyrazine] it was 5 nM; in that of `Cc1c(Cl)cc(OC(F)F)c2nc(CCc3nc(N4CCCC4)nn3C)nn12` [Example 95, 6-Chloro-8-difluoromethoxy-5-methyl-2-[2-(2-methyl-5-pyrrolidin-1-yl-2H-[1,2,4]triazol-3-yl)-ethyl]-[1,2,4]triazolo[1,5-c]pyridine], 0.23 nM; in that of `Cc1nc(C)n2nc(CCc3nc(N4CCCC4)nn3C)nc2c1C` [Example 42, 5,7,8-Trimethyl-2-(2-(1-methyl-3-(pyrrolidin-1-yl)-1H-1,2,4-triazol-5-yl)ethyl)-[1,2,4]triazolo[1,5-c]pyrimidine], 13.6 nM.
`Cc1ccc(C)n2nc(CCc3nc(N4CCCC4)nn3C)nc12` [Example 37, 5,8-Dimethyl-2-(2-(1-methyl-3-(pyrrolidin-1-yl)-1H-1,2,4-triazol-5-yl)ethyl)-[1,2,4]triazolo[1,5-a]pyridine] returned an IC50 of 4.21 nM.
Turning to `Cc1c(Cl)cc(O)c2nc(CCc3nc(N4CCCC4)nn3C)nn12` [Example 85, 6-Chloro-5-methyl-2-(2-(1-methyl-3-(pyrrolidin-1-yl)-1H-1,2,4-triazol-5-yl)ethyl)-[1,2,4]triazolo[1,5-a]pyridin-8-ol], the IC50 was 4.22 nM.
`Cc1ccc2nc(CCc3nc(N4CCCC4)nn3C)nn2c1C` [Example 40, 5,6-Dimethyl-2-(2-(1-methyl-3-(pyrrolidin-1-yl)-1H-1,2,4-triazol-5-yl)ethyl)-[1,2,4]triazolo[1,5-a]pyridine] showed an IC50 of 10.2 nM.
The same measure for `Cc1ncc(C)n2nc(CCc3nc(N4CCC[C@H]4C)nn3C)nc12` [Example 101, 5,8-Dimethyl-2-{2-[2-methyl-5-((R)-2-methyl-pyrrolidin-1-yl)-2H-[1,2,4]triazol-3-yl]-ethyl}-[1,2,4]triazolo[1,5-a]pyrazine]: 57.6 nM; for `Cc1ncc(C)n2nc(CCc3nc(N4CCCC4)nn3C3CC3)nc12` [Example 123a, 2-[2-(2-Cyclopropyl-5-pyrrolidin-1-yl-2H-[1,2,4]triazol-3-yl)-ethyl]-5,8-dimethyl-[1,2,4]triazolo[1,5-a]pyrazine]: 2.03 nM.
The same measure for `Cc1nc2ccccc2nc1/C=C/c1nc(N2CCCC2)nn1C` [Example 15, 2-Methyl-3-[2-(2-methyl-5-pyrrolidin-1-yl-2H-[1,2,4]triazol-3-yl)-vinyl]-quinoxaline]: 105 nM; for `Cc1c(Cl)cc(C(F)F)c2nc(CCc3nc(N4CCCC4)nn3C)nn12` [Example 130, 6-Chloro-8-(difluoromethyl)-5-methyl-2-(2-(1-methyl-3-(pyrrolidin-1-yl)-1H-1,2,4-triazol-5-yl)ethyl)-[1,2,4]triazolo[1,5-a]pyridine]: 0.89 nM.
The same measure for `Cc1c(Cl)cc(C(F)(F)F)c2nc(CCc3nc(N4CCCC4)n(C)n3)nn12` [Example 105, 6-Chloro-5-methyl-2-[2-(1-methyl-5-pyrrolidin-1-yl-1H-[1,2,4]triazol-3-yl)-ethyl]-8-trifluoromethyl-[1,2,4]triazolo[1,5-c]pyridine]: 0.44 nM; for `Cc1ncc(C)n2nc(CC(C)c3nc(N4CCCC4)nn3C)nc12` (single isomer, unassigned; (-)) [Example 126, (−)-5,8-Dimethyl-2-(2-(1-methyl-3-(pyrrolidin-1-yl)-1H-1,2,4-triazol-5-yl)propyl)-[1,2,4]triazolo[1,5-a]pyrazine]: 321 nM; for `Cc1c(Cl)cc(C(F)(F)F)c2nc(CCc3nc(N4CCCC4)nn3C3CCOCC3)nn12` [Example 122, 6-Chloro-5-methyl-2-(2-(3-(pyrrolidin-1-yl)-1-(tetrahydro-2H-pyran-4-yl)-1H-1,2,4-triazol-5-yl)ethyl)-8-(trifluoromethyl)-[1,2,4]triazolo[1,5-a]pyridine]: 0.35 nM.
As for `Cc1ncc(C)n2nc(CCc3nc(N4CCC[C@@H]4C)nn3C)nc12` [Example 100, 5,8-Dimethyl-2-{2-[2-methyl-5-((S)-2-methyl-pyrrolidin-1-yl)-2H-[1,2,4]triazol-3-yl]-ethyl}-[1,2,4]triazolo[1,5-a]pyrazine], half-maximal inhibition (IC50) required 5.5 nM.
The same measure for `Cc1nc2ccc(Cl)cc2nc1C#Cc1nc(N2CCCC2)nn1C` [Example 136, 6-Chloro-2-methyl-3-(2-methyl-5-pyrrolidin-1-yl-2H-[1,2,4]triazol-3-ylethynyl)-quinoxaline]: 5.17 nM.
In the case of `CCn1nc(N2CCCC2)nc1CCc1nc2nc(C)cc(C)n2n1` [Example 4, 2-[2-(2-Ethyl-5-pyrrolidin-1-yl-2H-[1,2,4]triazol-3-yl)-ethyl]-5,7-dimethyl-[1,2,4]triazolo[1,5-a]pyrimidine] it was 10.9 nM.
The molecule `CCc1cc(C(F)(F)F)c2nc(CCc3nc(N4CCCC4)nn3C)nn2c1C` [Example 86, 6-Ethyl-5-methyl-2-[2-(2-methyl-5-pyrrolidin-1-yl-2H-[1,2,4]triazol-3-yl)-ethyl]-8-trifluoromethyl-[1,2,4]triazolo[1,5-a]pyridine] gave an IC50 of 3.44 nM.
